Test results from patent publication US20240262845A1, “PYRIDINIUM SALTS, METHODS OF MAKING, AND METHODS OF USE” (UNIVERSITY OF WYOMING, priority 2023, published 2024).
Entries after “also recorded” stand apart in the source; their conditions may differ. Where a name gives a salt, the structure may show the parent alone.

Columns and labels:
lysozyme = molecular target: T1, lysozyme (Gallus gallus, UniProt P00698); assay: Photochemical labeling of lysozyme with pyridinium salts (General Procedure B, LC/MS); type: biochemical, chicken; conditions: lysozyme labeling
T1 construct: Lysozyme (from chicken egg white, >40,000 units/mg of protein); purchased Sigma Aldrich; host or cells: chicken egg white
T1 sequence (P00698 19-147): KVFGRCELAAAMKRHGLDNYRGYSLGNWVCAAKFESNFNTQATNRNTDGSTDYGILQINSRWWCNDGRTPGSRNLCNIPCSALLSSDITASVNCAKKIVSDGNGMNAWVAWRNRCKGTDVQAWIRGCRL
Method: General Procedure B: Photochemical Irradiation of Peptides and Proteins: To a 2 mL Pyrex LC/MS vial (Thermo model #03-391-39) were sequentially added solutions containing the desired biomolecule, glutathione (GSH), pyridinium salt, and ammonium acetate (NH4OAc). The resulting solution was diluted to a final volume of 500 μL and then sparged using nitrogen for a minimum of 30 minutes prior to irradiation. The actively sparging solution was then placed in an EvoluChem™ PhotoRedOx Box photoreactor that was equipped with a Kessil, PR160 427 nm LED Lamp and was then irradiated (100% lamp intensity) for the designated time at room temperature while maintaining active sparging. The resultant reaction mixture was then analyzed directly by LC/MS. Analysis of labeling outcomes using LC/MS was performed either by extracted ion chromatogram intensities (method A) or by integrating the area under the peaks associated with peptide content (method B). These values were totaled, and estimated percentages were assigned according to relative intensities of peaks or ion counts.
Labeling of Lysozyme with Pyridinium Salt 2a (Lysozyme-2a Conjugate). Labeling of lysozyme (14.3 kDa) with the pyridinium salt 2a was performed by following general procedure B using the following solutions: lysozyme (27 μL, 182 μM, 10 μM final concentration), pyridinium salt 2a (200 μL, 500 μM, 200 μM final concentration), NH4OAc (100 μL, 100 mM, pH=6.9, 20 mM final concentration), glutathione (15 μL, 10 mM, 300 μM final concentration), and water (158 μL) with a 100% intensity irradiation time of 60 minutes. The reaction mixture was analyzed directly by LC/MS using method A and was estimated to have proceeded in >95% conversion and a 10.9:1 mono:di labeled ratio and 10% glutathionylation of all unlabeled and labeled protein content was observed.
Labeling of Lysozyme with Pyridinium Salt 2b (Lysozyme-2b Conjugate). Labeling of lysozyme (14.3 kDa) with the pyridinium salt 2b was performed by following general procedure Busing the following solutions: lysozyme (19 μL, 262 μM, […]), 2b (181 μL, 554 μM, 200 μM final concentration), NH4OAc (50 μL, 200 mM, pH=6.9, 20 mM final concentration), glutathione (50 μL, 3 mM, 300 μM final concentration), and water (200 μL) with a 100% intensity irradiation time of 10 minutes. The reaction mixture was analyzed directly by LC/MS using method A and was estimated to have proceeded with 83% conversion. […]
Labeling of Lysozyme with Pyridinium Salt 2c (Lysozyme-2c Conjugate). […] The reaction mixture was analyzed directly by LC/MS using method A and was estimated to have proceeded with 85% conversion and a 3.7:1 mono:di labeled ratio and 10% glutathionylation of all protein content was observed. […]

HEK293T lysates = assay: Chemoproteomic profiling of HEK293T lysates (protein-level enrichment); type: biochemical, human; conditions: for Western blot (streptavidin-HRP) proteome labeling profile of elutions: 0-100 μM probe, with/without light, before digestion; for number of proteins identified (from ≥2 unique peptides) showing ≥2-fold enrichment versus DMSO: about 100 μM probe, 5 mg/mL lysate, 60 min incubation, 20 min irradiation: 302 nm (1a), 320 nm (1b), 440 nm (2b)
Method: In lysate tryptophan probe treatment for protein-level characterization: HEK293T cell pellets were suspended in native lysis buffer (50 mM HEPES pH 7.5, 150 mM sodium chloride (NaCl), 1.5 mM MgCl2, 1 mM DTT, 0.8% NP-40, 5% glycerol, and 1× protease inhibitors (Thermo)) at 2× the pellet volume. The samples were sonicated on ice for 30 seconds at 20% amplitude with a 2 second pulse ON and 3 second pulse OFF. Cell debris was removed by centrifugation at 20,000×g for 20 minutes at 4° C. Protein concentration was determined by bicinchoninic acid (BCA) (Pierce) and diluted down to 5 mg/mL with ChemProt buffer (50 mM HEPES pH 7.5, 150 mM NaCl, 1.5 mM MgCl2, 1 mM DTT, 0.4% NP-40, and 1x protease inhibitors (Thermo). 5 mg cell lysates were treated with 100× stocks of the tryptophan probes (pyridinium salts 1a, 1b, and 2b) to generate final concentrations (0, 1, 10, and 100 μM) in 1% DMSO. Lysates were incubated for 1 hour at 4° C. followed by photo-activation at respective wavelengths for 20 minutes at 4° C. Excess probe was removed using Sephadex G-25 PD-10 desalting columns (GE Healthcare) pre-equilibrated with 50 mM HEPES pH 7.5, 150 mM NaCl, 1.5 mM MgCl2, and 0.4% NP-40. The samples were then treated with 100 μL Neutravidin resin as a 50% slurry (Peirce). The samples were incubated overnight on a rotating apparatus at R.T. The following day, the beads were transferred to a MobiCol column (Boca Scientific), washed 3× with phosphate buffered saline (PBS) containing 0.2% SDS, washed 3× with PBS, and the enriched proteins were eluted with 2× NuPAGE lithium dodecyl sulfate (LDS) containing 10 mM DTT (Pierce) and heated for 30 minutes at 55° C. The eluent was collected and subsequently treated with 20 mM iodoacetamide (Pierce) for 30 minutes at R.T. protected from light. Samples were passed through detergent removal columns (Pierce) that were pre-equilibrated with 50 mM HEPES pH 8.0. The samples were treated with 2.5 μg Trypsin/LysC (Promega) at 37° C. for 16 hours. The following day, the sample was collected and prepped for isobaric labeling with TMT reagents (Thermo) as specified by the manufacturer.
Quantitative proteomics by two-dimensional nano liquid chromatography-tandem mass spectrometry (nLC-MS/MS): For protein-level characterization, the TMT-labeled sample were reconstituted in 0.1% formic acid (FA)/2% acetonitrile for offline high-pH reversed phase separation (RP10) using a Dionex UltiMate 3000 high-performance liquid chromatography (HPLC) system with fraction collection using Chromeleon v.6.8 (Thermo) software. Separation was achieved on a Waters Xbridge C18 3.5 μm 2.1×150 mm HPLC column (Waters) using a flow rate of 250 μL min-1 and the following ternary gradient and conditions: mobile phase A=water (HPLC grade), mobile phase B=acetonitrile (HPLC grade), and mobile phase C=200 mM ammonium acetate, pH 10. Mobile phase C is held at 10% throughout gradient. Starting conditions are 89% mobile phase A and 1% mobile phase B, ramping mobile phase B to 80% over 65 min. Fractions were collected in 96-well plates at 100 sec per well. Fractions were reduced down to 12 fractions, dried, and reconstituted in 0.1% FA/2% acetonitrile for nLC-MS/MS. All data were acquired using a Orbitrap Fusion Lumos coupled to an Easy-nLC 1200 nanoflow liquid chromatograph operating at 300 nL min-1. Peptides were cleaned up using a 1 cm online custom trap then eluted on a custom 20 cm laser pulled 75 μm column with C18 resin. Peptides were quantified using the synchronous precursor selection (SPS-MS3) or HCD method for TMT quantitation with 120k MS1 resolving power, 50 ms max injection time and 100% AGC. MS2 spectra were selected using the top ten most abundant features with a charge state between 2-6 using CID (collision induced dissociation) in the ion trap. The AGC was set to 100% with an isolation width of 0.7. MS3 was performed on the top 10 most abundant MS2 features between 400-1600 amu with a collision energy of 55%, AGC of 250%, and 50k resolution. […]

Compound	labeling rate compared to pyridinium salt 2a (lysozyme)	Western blot (streptavidin-HRP) proteome labeling profile of elutions (HEK293T lysates)	number of proteins identified (from ≥2 unique peptides) showing ≥2-fold enrichment versus DMSO (HEK293T lysates)
COc1ccc2cc(-c3cc(C)[n+](N(C)C(=O)OCCCCCC[C@H]4NC(=O)N[C@H]4C)c(C)c3)ccc2c1 [pyridinium salt 2c, 4-(6-methoxynaphthalen-2-yl)-2,6-dimethyl-1-(methyl(((6-((4R,5S)-5-methyl-2-oxoimidazolidin-4-yl)hexyl)oxy)carbonyl)amino)pyridin-1-ium trifluoroacetate]	enhanced rate		
Cc1cc(C)[n+](N(C)C(=O)OCCCCC[C@@H]2SC[C@@H]3NC(=O)N[C@@H]32)c(C)c1 [pyridinium salt 1a, 2,4,6-trimethyl-1-(methyl(((5-((3aS,4S,6aR)-2-oxohexahydro-1H-thieno[3,4-d]imidazol-4-yl)pentyl)oxy)carbonyl)amino)pyridin-1-ium tetrafluoroborate]		concentration and optically dependent proteome labeling profiles; also recorded: loss of signal	185
Cc1cc(-c2ccccc2)cc(C)[n+]1N(C)C(=O)OCCCCC[C@@H]1SC[C@@H]2NC(=O)N[C@@H]21 [pyridinium salt 1b, 2,6-dimethyl-1-(methyl(((5-((3aS,4S,6aR)-2-oxohexahydro-1H-thieno[3,4-d]imidazole-4-yl)pentyl)oxy)carbonyl)amino)-4-phenylpyridin-1-ium tetrafluoroborate]		concentration and optically dependent proteome labeling profiles; also recorded: dose-response profiles	365
